Measurements reported in patent US7217735B1, “Methods and compositions for enhancing delivery of therapeutic agents to tissues” (priority 1999, dated 2007).

How the values were obtained:
[1] = system: microtubule; details: cited from earlier work
[2] = system: patient prostate tumors; experiment: Doxorubicin accumulation and penetration in tumor histocultures (fluorescence microscopy); type: in vitro ADME, human; details: for Tissue concentration at 72 hr: in µM; for distribution of fluorescence signal: 5 or 20 μM
Description: (§1) In this example, the penetration of doxorubicin into multilayer tissue was monitored using prostate tumor specimens obtained from human cancer patients and using the human prostate PC3 xenograft tumor maintained in athymic mice. Doxorubicin was monitored by fluorescence.
(§2) Histocultures of tumors were incubated with 1, 5 or 20:M doxorubicin as described in Example 1. […] At 4, 12, 24, 36, 48, and 72 hours, histocultures were collected and processed as described in Example 1. The fluorescence emitted by doxorubicin was visualized using fluorescence microscopy. The excitation and emission wavelengths were 546 nm and 565 nm, respectively. Microscopic images were captured using a Charged Couple Device (CCD) camera and the captured images were analyzed using Optimas image analysis software (Silver spring, MD). The doxorubicin concentration in tissues was quantified using standard curves (each curve contained six data points), established as follows. Samples for the standard curves were prepared by applying known amounts of doxorubicin in solution to microscope sections of blank dog prostate tissue. The standard doxorubicin solutions (2:1) were pipetted on 10:m-thick blank tissue sections, and carefully spread over a surface area of approximately 1.5–2 cm^2. The standard slides were scanned using the same conditions as the samples. The average fluorescence intensity per area were measured. Plots of the fluorescence readings against the applied doxorubicin concentrations in the standard curve samples provided the standard curves used to quantify the doxorubicin in the actual samples. For the latter, at least three sections were used to obtain the mean value in one tumor, and at least three tumors were used to obtain the mean value at each time point.
(§3) The rate of doxorubicin penetration into patient and PC3 xenograft tumors was monitored using fluorescence microscopy.

[3] = system: PC3 xenograft tumor; experiment: as above; type: in vitro ADME, human; details: for Tissue-to-medium concentration ratio at 72 hr / Tissue concentration at 72 hr: PC3 xenograft tumor; for Tissue concentration at 72 hr: in µM; for distribution of fluorescence signal: 5 or 20 μM
Description: The androgen-independent human prostate PC3 cells were maintained as xenograft tumors in male nude mice according to the previously published procedures (Pretlow et al., 1993; Nagabhushan et al., 1996). Briefly, minced tumor tissue mixed with the same volume of Matrigel was implanted into both flanks of the nude mice at 0.3 ml per site. Tumors were harvested when they reached a size of 1 g at about 1.5 to 2 months after implantation.
as §1, §2, §3

[4] = system: PC3 xenograft tumor; experiment: Tumor cell density after doxorubicin treatment; type: cell-based, human; details: 5 or 20 μM
Description: The fractions of stromal tissue and tumor cells in each histoculture were measured using image analysis. Briefly, stromal and tumor cells of a 100× magnification field were outlined with the computer mouse. The sizes of each of these regions were determined via image analysis by counting the number of pixels in the region. […] Apoptotic cells were determined based on morphological changes in tumor cells such as chromatin condensation and margination, disappearance of nucleoli, formation of membrane blebs, apoptotic bodies and/or cell shrinkage (Kerr J F R et al. (1994) Cancer 73:2013). […] For each tumor piece, 50 to 100 images were processed, and the fractions of the tumor represented by tumor cells, stromal tissue, and interstitial space were calculated.

[5] = system: patient prostate tumors and PC3 xenograft tumors; experiment: Doxorubicin concentration versus distance from tumor periphery (FIG. 4); type: in vitro ADME, human
Description: as §2, with “The standard doxorubicin solutions (2:1) were pipetted on 10:m-thick blank tissue sections, and carefully spread over a surface area of approximately 1.5–2 cm^2. The standard slides were scanned using the same conditions as the samples.” left out, “For the latter, at least three sections were used to obtain the mean value in one tumor, and at least three tumors were used to obtain the mean value at each time point.” left out
FIG. 4 summarizes the drug concentration in tumor tissue, expressed as tissue-to-medium concentration ratio, as a function of the distance from the periphery of the tumor histocultures. […]

[6] = system: human prostate tumor histocultures; details: cited from earlier work

CC(=O)O[C@H]1C(=O)[C@@]2(C)[C@H]([C@H](OC(=O)c3ccccc3)[C@]3(O)C[C@H](OC(=O)[C@H](O)[C@@H](NC(=O)c4ccccc4)c4ccccc4)C(C)=C1C3(C)C)[C@]1(OC(C)=O)CO[C@@H]1C[C@@H]2O [7-epitaxol]
microtubule binding affinity compared with paclitaxel [1]: similar

COc1cccc2c1C(=O)c1c(O)c3c(c(O)c1C2=O)C[C@@](O)(C(=O)CO)C[C@@H]3O[C@H]1C[C@H](N)[C@H](O)[C@H](C)O1 [doxorubicin]
Tissue-to-medium concentration ratio at 72 hr ([2]; 1 μM in culture medium): 29.2 ± 7.8
Tissue concentration at 72 hr ([2]; 1 μM in culture medium): 29.2 ± 7.8
drug distribution ([2]; 1 μM, by 72 hr): distributed evenly throughout the patient tumors
Tissue-to-medium concentration ratio at 72 hr ([2]; 5 μM in culture medium): 31.6 ± 14.2
Tissue concentration at 72 hr ([2]; 5 μM in culture medium): 158 ± 70.9
Tissue-to-medium concentration ratio at 72 hr ([2]; 20 μM in culture medium): 36.9 ± 26.5
Tissue concentration at 72 hr ([2]; 20 μM in culture medium): 739 ± 531
distribution of fluorescence signal ([2]; after 24 hr): evenly distributed throughout the histoculture
distribution of fluorescence signal ([2]; first 12 hr): confined to the periphery
PC3 xenograft-to-patient tumor concentration ratio at 72 hr ([3]; 1 μM in culture medium): 1.15
PC3 xenograft-to-patient tumor concentration ratio at 72 hr ([3]; 5 μM in culture medium): 1.35
PC3 xenograft-to-patient tumor concentration ratio at 72 hr ([3]; 20 μM in culture medium): 1.5
Tissue-to-medium concentration ratio at 72 hr ([3]; 1 μM in culture medium): 33.6 ± 3.9
Tissue concentration at 72 hr ([3]; 1 μM in culture medium): 33.6 ± 3.9
Tissue-to-medium concentration ratio at 72 hr ([3]; 5 μM in culture medium): 42.7 ± 3.3
Tissue concentration at 72 hr ([3]; 5 μM in culture medium): 213 ± 16.4
Tissue-to-medium concentration ratio at 72 hr ([3]; 20 μM in culture medium): 55.3 ± 9.6
Tissue concentration at 72 hr ([3]; 20 μM in culture medium): 1107 ± 193
drug distribution ([3]; xenograft tumor, 1 μM, at 72 hr): remained confined to the periphery
distribution of fluorescence signal ([3]; xenograft tumor, after 36 hr): evenly distributed
distribution of fluorescence signal ([3]; xenograft tumor, first 24 hr): confined to the periphery
cell density in the periphery of the tumor [4]: decreased with time
equilibrium between far end (325 μm) and periphery (75 μm) concentration ([5]; 1 μM): did not reach equilibrium
time at which equilibrium between far end and periphery was attained ([5]; 5 and 20 μM): 36 h
IC50 ([6]; human prostate tumor histocultures, read-out: IC50, inhibition of tumor cell growth): 61 nM
CC50 ([6]; human prostate tumor histocultures, read-out: LC50, tumor cell death): 2100 nM
concentration sufficient to produce 50% cell death ([6]; patient prostate tumors): 2.1 :M
concentration sufficient to produce 90% cell death ([6]; patient prostate tumors): 4.2 :M
concentration sufficient to produce 90% inhibition of tumor cell proliferation ([6]; patient prostate tumors): 0.4 :M
